# Experimental data as given in publication PMC11150392, “Structure and mechanism of the K^+/H^+ exchanger KefC” (Nature Communications, 2024).
# Target: T1, KefC WT* (Escherichia coli, UniProt P03819)
# T1 construct: lacks final 60 C-terminal residues (WT*); C-terminal TEV-GFP-His8, cleaved for cryo-EM, kept in FSEC stability assays; expressed in E. coli Lemo21(DE3)-type host; homodimer in DDM/GDN
# T1 sequence (P03819 1-560): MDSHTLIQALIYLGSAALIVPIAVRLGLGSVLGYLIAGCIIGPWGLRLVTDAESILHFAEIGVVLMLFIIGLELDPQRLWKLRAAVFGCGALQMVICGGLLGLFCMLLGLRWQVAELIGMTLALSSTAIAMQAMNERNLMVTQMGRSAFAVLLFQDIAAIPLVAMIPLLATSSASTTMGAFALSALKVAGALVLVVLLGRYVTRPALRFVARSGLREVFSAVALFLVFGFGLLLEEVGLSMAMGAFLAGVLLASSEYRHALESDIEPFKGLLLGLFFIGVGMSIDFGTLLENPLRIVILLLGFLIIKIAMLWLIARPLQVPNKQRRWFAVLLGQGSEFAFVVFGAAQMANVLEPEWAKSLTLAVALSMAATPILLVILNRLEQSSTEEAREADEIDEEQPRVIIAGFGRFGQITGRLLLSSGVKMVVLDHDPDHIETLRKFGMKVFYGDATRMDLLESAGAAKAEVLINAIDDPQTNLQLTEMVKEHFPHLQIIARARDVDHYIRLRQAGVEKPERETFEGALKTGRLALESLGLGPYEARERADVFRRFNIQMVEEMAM
# Assay: FSEC thermostabilization of purified GFP fusion
# Assay type: binding
# Details: 40 °C 10 min, 1% beta-OG, DDM, 1 mM AMP, pH 7.5; dimer interface; Supplementary Fig. 5b; PG modelled (PGW), map density not unambiguous
compound,measurement,value
CCCCCCCC/C=C\CCCCCCCC(=O)OC[C@H](COP(=O)(O)OCC(O)CO)OC(=O)CCCCCCC/C=C\CCCCCCCC (stereo partly shown) [DOPG],FSEC thermostabilization of purified GFP fusion,The clearest thermostabilization of the KefC homodimer was observed upon addition of PG lipids
